Test results published in ChEMBL document CHEMBL1201862, “PubChem BioAssay data set” (2004).
Activity calls are given as the source filed them.

Experiments:
[1] = system: HEK293; assay: NOD1 signaling inhibitors, primary screen, cell-based, luminescence, uHTS (AID 1578); assay type: functional; conditions: Homo sapiens
[2] = system: HEK293; assay: cells; assay type: functional, cell-based; conditions: Homo sapiens
[3] = system: HEK293; assay: cells; assay type: functional, cell-based; conditions: Homo sapiens; remark: listed apart in the source
[4] = system: HEK293; assay: NOD2 signaling inhibitors in MDP-stimulated cells, cell-based, uHTS, luminescence (AID 2001); assay type: functional; conditions: Homo sapiens
[5] = cytotoxicity in HEK-293T cells, dose response, cytotoxicity control for TCR NF-kB inhibitor project, luminescence, T-cell screen hits (AID 489026); assay type: functional, cell-based;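 also: cells exposed to compound about 14 hours before the viability readout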
[6] = target: Glucose-6-phosphate 1-dehydrogenase (Homo sapiens, UniProt P11413); assay: human G6PD enzyme inhibitors, dose response, selectivity assay for P. falciparum G6PD inhibitor project, biochemical, fluorescence (AID 504792); assay type: functional
[7] = system: Streptococcus sp. 'group A'; assay: growth inhibition of control SK(-) GAS strain, dose response, counter-screen for streptokinase expression inhibitor project, luminescence, kanamycin, BacTiterGlo, confirmation (AID 1900); assay type: functional, organism-based
[8] = target: T1, Streptokinase A (Streptococcus pyogenes serotype M1, UniProt P10520); assay: S. pyogenes streptokinase expression inhibitors, potency, dose response, plasminogen activation absorbance, OD405 (AID 1914); assay type: functional, Streptococcus pyogenes M1 GAS;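 also: secreted streptokinase activity via plasminogen activation per viability signal from cell pellet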
T1 sequence (P10520 whole entry): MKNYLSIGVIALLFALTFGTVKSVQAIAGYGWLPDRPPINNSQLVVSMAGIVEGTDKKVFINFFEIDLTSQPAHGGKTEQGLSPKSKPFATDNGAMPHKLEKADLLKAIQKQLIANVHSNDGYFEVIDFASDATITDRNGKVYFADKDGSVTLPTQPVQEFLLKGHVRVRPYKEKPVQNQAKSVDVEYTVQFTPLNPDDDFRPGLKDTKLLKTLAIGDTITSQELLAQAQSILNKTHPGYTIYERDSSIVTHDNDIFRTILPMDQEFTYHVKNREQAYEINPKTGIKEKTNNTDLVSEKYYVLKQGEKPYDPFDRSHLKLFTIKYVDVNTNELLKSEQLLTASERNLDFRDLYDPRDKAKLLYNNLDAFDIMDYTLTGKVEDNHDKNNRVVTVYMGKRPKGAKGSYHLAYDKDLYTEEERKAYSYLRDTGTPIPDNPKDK

[9] = system: Streptococcus; assay: Group A Streptococcus viability loss, dose response, counter-screen for streptokinase expression inhibitor project, luminescence, BacTiterGlo (AID 1915); assay type: functional, organism-based;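 also: potency for reduction of bacterial viability or growth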
[10] = THP-1 cell cytotoxicity, dose response, cytotoxicity control for non-replicating M. tuberculosis project (AID 489025); assay type: functional
[11] = Luminescence Cell-Based Dose Retest to Confirm Inhibitors of Cancer Stem Cells. [Related pubchem assays (depositor defined):AID2717, AID2721]; assay type: functional; conditions: Homo sapiens
[12] = HepG2 cell cytotoxicity, dose response, cytotoxicity control for non-replicating M. tuberculosis project (AID 489018); assay type: functional; conditions: Mycobacterium tuberculosis
[13] = Vero E6 cell cytotoxicity, dose response, cytotoxicity control for non-replicating M. tuberculosis project, secondary assay (AID 492998); assay type: functional, VeroE6; conditions: Vero C1008
[14] = cells; assay type: functional
[15] = target: Paired box protein Pax-8 (Homo sapiens, UniProt Q06710); assay: inhibitors of PAX8-driven TPO luciferase reporter, dose response, RMG-I cells, cherry-pick (AID 687027); assay type: functional, cell-based;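 also: luciferase reporter driven by Pax8 target thyroperoxidase promoter measured by SteadyGlo luminescence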
[16] = system: BJ; assay: cytotoxicity toward BJ-TERT fibroblasts, dose response, cell-based, RAS-independent, luminescence (AID 1933); assay type: functional; conditions: Homo sapiens
[17] = system: Vero; assay: host cell cytotoxicity of antiviral hits, dose response, cytotoxicity control for West Nile virus antiviral project, secondary assay (AID 1650); assay type: functional; conditions: Chlorocebus sabaeus
[18] = system: BJ; assay: cells; assay type: functional, cell-based; conditions: Homo sapiens
[19] = system: BJ; assay: cytotoxicity toward BJ-TERT-LT-ST fibroblasts, dose response, cell-based, RAS-independent, luminescence (AID 1935); assay type: functional; conditions: Homo sapiens;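 also: BJ fibroblasts immortalized with TERT plus LT and ST oncogenes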
[20] = cytotoxicity toward DRD oncogenic fibroblasts, dose response, cell-based, non-viral oncogenic, luminescence (AID 1934); assay type: functional; conditions: Homo sapiens
[21] = system: Vero; assay: cells; assay type: functional, cell-based; conditions: Chlorocebus sabaeus
[22] = system: Vero; assay: cells; assay type: functional; conditions: Chlorocebus sabaeus
[23] = target: T2, Corticotropin-releasing factor receptor 2/Corticotropin-releasing factor-binding protein (Homo sapiens, UniProt P24387+Q13324); assay: Dose Response confirmation of uHTS hits for small molecule antagonists of the CRF-binding protein and CRF-R2 receptor complex.; assay type: functional; conditions: read-out: IC50_Mean
T2 sequence (Q13324 whole entry): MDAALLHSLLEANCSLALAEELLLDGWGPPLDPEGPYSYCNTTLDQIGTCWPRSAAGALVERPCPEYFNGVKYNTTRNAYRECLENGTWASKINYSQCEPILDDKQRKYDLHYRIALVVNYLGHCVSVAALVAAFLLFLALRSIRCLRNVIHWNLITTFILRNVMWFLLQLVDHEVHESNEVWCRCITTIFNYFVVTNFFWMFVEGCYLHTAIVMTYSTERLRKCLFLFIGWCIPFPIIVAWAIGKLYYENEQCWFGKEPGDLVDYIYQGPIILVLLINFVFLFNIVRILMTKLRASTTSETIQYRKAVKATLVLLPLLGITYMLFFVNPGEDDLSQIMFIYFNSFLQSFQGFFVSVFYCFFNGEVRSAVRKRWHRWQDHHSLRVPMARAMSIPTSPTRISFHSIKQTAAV
T2 sequence (P24387 whole entry): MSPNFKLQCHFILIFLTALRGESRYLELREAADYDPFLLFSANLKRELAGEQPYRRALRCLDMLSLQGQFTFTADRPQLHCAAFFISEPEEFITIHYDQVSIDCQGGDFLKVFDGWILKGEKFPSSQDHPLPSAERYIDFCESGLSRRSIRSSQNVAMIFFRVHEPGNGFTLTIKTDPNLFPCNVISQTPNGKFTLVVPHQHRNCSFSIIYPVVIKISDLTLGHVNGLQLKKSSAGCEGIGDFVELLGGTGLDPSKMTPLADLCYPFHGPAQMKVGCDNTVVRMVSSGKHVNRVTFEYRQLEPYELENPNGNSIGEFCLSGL

[24] = target: T2, Corticotropin-releasing factor receptor 2/Corticotropin-releasing factor-binding protein; assay: activators of CRF receptor 2 with binding protein – uHTS hits, confirmation (AID 602473); assay type: functional; conditions: read-out: EC50_Mean
[25] = cytotoxicity in HPDE-C7 cells, cell-based, fluorescence, HTS (AID 430); assay type: functional; conditions: Homo sapiens
[26] = cytotoxicity in KRAS-transformed pancreatic duct cells, primary screen, cell-based, fluorescence, HTS (AID 431); assay type: functional; conditions: Homo sapiens;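 also: cell line used: HPDE-C7K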
[27] = growth suppression of PTEN-null colon cells, dose response, cell-based, HCT116 PTEN knockout (AID 1047); assay type: functional;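 also: HCT116 colon tumor cells with PTEN knocked out; cells exposed to compound for 60 hours before readout; potency for loss of cell viability measured by luminescence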
[28] = growth suppression of beta-catenin-knockout colon cells, dose response, cell-based, HCT116, human colon tumor (AID 1045); assay type: functional;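 also: HCT116 colon tumor cells with beta catenin knocked out; cells exposed to compound for 60 hours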
[29] = target: T3, Bcl-2-related protein A1 (Mus musculus, UniProt Q07440); assay type: functional;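 also: confirmatory dose–response counterscreen on Bfl-1, used to check hits from a UBC13 polyubiquitin inhibitor campaign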
T3 sequence (Q07440 whole entry): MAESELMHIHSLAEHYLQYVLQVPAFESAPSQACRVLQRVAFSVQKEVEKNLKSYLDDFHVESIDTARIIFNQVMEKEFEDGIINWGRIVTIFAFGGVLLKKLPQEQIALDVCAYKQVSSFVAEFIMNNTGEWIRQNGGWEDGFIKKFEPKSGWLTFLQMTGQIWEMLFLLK

[30] = target: T4, Ubiquitin-conjugating enzyme E2 N (Homo sapiens, UniProt P61088); assay type: functional
T4 sequence (P61088 whole entry): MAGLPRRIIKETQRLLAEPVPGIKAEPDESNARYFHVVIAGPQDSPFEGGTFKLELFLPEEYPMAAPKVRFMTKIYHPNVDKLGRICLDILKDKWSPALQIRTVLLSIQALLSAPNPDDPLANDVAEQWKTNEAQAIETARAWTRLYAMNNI

[31] = target: T4, Ubiquitin-conjugating enzyme E2 N; assay type: functional; remark: listed apart in the source
[32] = target: T5, Long-chain-fatty-acid--AMP ligase FadD28 (Mycobacterium tuberculosis, UniProt P9WQ59); assay: Fluorescence polarization aasay to screen for inhibitors that compete for the binding of FadD28 to a bisubstrate Measured in Biochemical System Using Plate Reader - 2147-01_Inhibitor_Dose_CherryPick_Activity.; assay type: functional, Mycobacterium tuberculosis H37Rv
T5 sequence (P9WQ59 whole entry): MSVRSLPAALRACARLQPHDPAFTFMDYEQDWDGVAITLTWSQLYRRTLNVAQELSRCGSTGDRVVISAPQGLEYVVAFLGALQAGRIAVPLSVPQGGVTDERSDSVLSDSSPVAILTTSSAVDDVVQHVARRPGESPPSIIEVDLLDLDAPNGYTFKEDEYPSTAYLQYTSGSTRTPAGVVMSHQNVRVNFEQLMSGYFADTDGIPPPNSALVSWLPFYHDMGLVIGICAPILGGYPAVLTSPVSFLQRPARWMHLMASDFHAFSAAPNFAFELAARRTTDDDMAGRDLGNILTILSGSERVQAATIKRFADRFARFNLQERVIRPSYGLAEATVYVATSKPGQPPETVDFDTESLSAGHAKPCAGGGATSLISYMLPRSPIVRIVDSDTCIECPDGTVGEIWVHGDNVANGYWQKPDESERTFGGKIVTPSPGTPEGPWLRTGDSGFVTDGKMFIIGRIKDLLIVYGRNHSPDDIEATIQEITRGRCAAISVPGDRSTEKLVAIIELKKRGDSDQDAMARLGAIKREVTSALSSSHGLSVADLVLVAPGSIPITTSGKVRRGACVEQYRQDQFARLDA

Paired box protein Pax-8, sequence (Q06710 whole entry): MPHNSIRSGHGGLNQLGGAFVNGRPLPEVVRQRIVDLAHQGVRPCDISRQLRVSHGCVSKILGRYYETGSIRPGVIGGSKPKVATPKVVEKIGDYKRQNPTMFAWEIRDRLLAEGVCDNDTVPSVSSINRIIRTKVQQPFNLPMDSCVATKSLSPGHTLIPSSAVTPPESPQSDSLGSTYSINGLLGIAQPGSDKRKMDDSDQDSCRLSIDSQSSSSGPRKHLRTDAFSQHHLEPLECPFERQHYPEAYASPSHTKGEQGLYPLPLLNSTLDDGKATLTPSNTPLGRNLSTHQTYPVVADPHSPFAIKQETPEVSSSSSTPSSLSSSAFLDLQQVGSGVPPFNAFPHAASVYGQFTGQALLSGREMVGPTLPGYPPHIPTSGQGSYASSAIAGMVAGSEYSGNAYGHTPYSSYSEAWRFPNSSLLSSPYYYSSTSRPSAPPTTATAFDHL
Glucose-6-phosphate 1-dehydrogenase, sequence (P11413 whole entry): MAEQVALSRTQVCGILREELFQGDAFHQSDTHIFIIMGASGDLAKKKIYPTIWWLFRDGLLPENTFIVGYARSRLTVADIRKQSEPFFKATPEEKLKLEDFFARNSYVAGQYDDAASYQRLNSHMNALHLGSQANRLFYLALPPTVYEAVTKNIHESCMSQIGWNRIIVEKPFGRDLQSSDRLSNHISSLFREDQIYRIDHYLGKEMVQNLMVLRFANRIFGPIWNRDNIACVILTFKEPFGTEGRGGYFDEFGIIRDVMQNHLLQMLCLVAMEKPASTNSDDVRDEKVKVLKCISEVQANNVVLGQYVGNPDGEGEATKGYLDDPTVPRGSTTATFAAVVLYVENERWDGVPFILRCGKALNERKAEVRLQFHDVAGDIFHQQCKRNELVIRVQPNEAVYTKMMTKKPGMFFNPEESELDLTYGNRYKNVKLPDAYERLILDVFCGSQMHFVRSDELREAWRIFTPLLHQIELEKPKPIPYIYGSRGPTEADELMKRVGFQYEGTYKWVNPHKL

O=C(Nc1ccc(Cc2ccncc2)cc1)c1ccc(S(=O)(=O)N2CCCC2)cc1
EC50 [1]: 2.66 µM (active)
IC50 [2]: 4.59 µM (active)
IC50 [3]: 13.6 µM (active)
IC50 [4]: 5.81 µM (active)
IC50 [5]: 33.4 µM (inactive)

CCOc1ccccc1C=NNC(=O)CCCCC(=O)NN=Cc1ccccc1OCC
IC50 [6]: > 80 µM (inactive)

O=C(NC12CC3CC(CC(C3)C1)C2)c1ccc([N+](=O)[O-])o1
EC50 [7]: 1.2 µM (active)
EC50 [8]: > 150 µM (not active)
EC50 [9]: 7.69 µM (active)
CC50 [10]: 12.4 µM (active)
AC50 [11]: 5.23 µM (active)
CC50 [12]: 10.4 µM (active)
CC50 [13]: 14.6 µM (active)
IC50 [14]: 7.14 µM (active)
AC50 [15]: 4.39 µM (active)

CN(C)c1ccc(C(=O)N/N=C/C23CC[C@@H](O)CC2(O)CC[C@@H]2[C@@H]3CCC3(C)C(C4=CC(=O)OC4)CCC23O)cc1 (stereo partly specified)
EC50 [16]: 3.63 µM (active)
CC50 [17]: 17.9 µM (active)
EC50 [18]: 14.2 µM (active)
EC50 [19]: 19 µM (active)
EC50 [20]: 3.56 µM (active)
IC50 [21]: > 25 µM (active)
CC50 [22]: 22 µM (active)
IC50 [23]: > 47.1 µM (inactive)
EC50 [24]: > 53 µM (inactive)

CCCCCCCCCCCCCCC[C@@H](O)[C@@H](N)CO [DIHYDROSPINGOSINE]
EC50 [7]: 1.34 µM (active)
EC50 [8]: > 150 µM (not active)
EC50 [25]: 14 µM (active)
EC50 [26]: 9.93 µM (active)
EC50 [27]: 8.66 µM (active)
EC50 [28]: 7.58 µM (active)
EC50 [9]: 8.91 µM (active)
IC50 [29]: > 20 µM (inactive)
IC50 [30]: 15.5 µM (active)
IC50 [31]: 13.4 µM (active)
IC50 [21]: > 25 µM (active)
AC50 [32]: 5.6 µM (active)
